Tested on: bacteria
Assay: Antibacterial activity
Assay type: cell-based

## COC1(C)CC(O[C@H]2[C@H](C)[C@@H](OC3OC(C)CC(N(C)C)C3O)[C@](C)(O)C[C@@H](C)C(=O)[C@H](C)[C@@H](O)[C@](C)(O)[C@@H](CCF)OC(=O)[C@@H]2C)OC(C)C1O (some centres unmarked) [15-fluoroerythromycin A, 15-Fluoroerythromycin A]
  antibacterial activity: strong antibacterial activity

## CCC[C@H]1OC(=O)[C@H](C)[C@@H](O[C@H]2C[C@@](C)(OC)[C@@H](O)[C@H](C)O2)[C@H](C)[C@@H](O[C@@H]2O[C@H](C)C[C@H](N(C)C)[C@H]2O)[C@](C)(O)C[C@@H](C)C(=O)[C@H](C)[C@@H](O)[C@]1(C)O [15-methylerythromycin A]
  antibacterial activity: strong antibacterial activity

Source: US6492562B1, “Racemic thioesters for production of polyketides” (Kosan Biosciences, Inc., priority 1999, dated 2002)
